Source: patent US7008943B2, “1-(Pyrrolidin-1-ylmethyl)-3-(pyrrol-2-ylmethylidene)-2-indolinone derivatives” (Pharmacia & Upjohn Company, priority 2000, dated 2006)

How the values were obtained:
[1] = Plasma Stability Test: conversion of prodrug to drug after IV administration to dogs, HPLC analysis of blood plasma; type: in vivo; conditions: IV at 2 mg/mL, blood plasma followed by HPLC for 4 hours following dosing
Protocol: The prodrug (3Z)-3-[(3,5-dimethyl-1H-pyrrol-2-yl)-methylidene]-1-(1-pyrrolidinylmethyl)-1,3-dihydro-2H-indol-2-one was administered IV at 2 mg/mL to dogs. Levels of both prodrug and drug (3(Z)-3-[(3,5-dimethyl-1H-pyrrol-2-yl)-methylidene]-1,3-dihydro-2H-indol-2-one) were followed by HPLC analysis of blood plasma for 4 hours following dosing.

[2] = Aqueous solubility of prodrug versus parent compound; type: physicochemical; conditions: versus parent compound (II)
Source text: The prodrug compounds of the present invention have advantages over compounds of Formula (II) by virtue of improved aqueous solubility and formulability. […] It is contemplated that similar enhanced solubility will be observed for other compounds of Formula (I) carrying the pyrrolidin-1-ylmethyl moiety at the nitrogen of the indolinone ring. A general description of the advantages and uses of prodrugs as pharmaceutically useful compounds is given in an article by Waller and George in Br. J Clin. Pharmac., Vol. 28, pp. 497–507, 1989.

Cc1cc(C)c(/C=C2\C(=O)N(CN3CCCC3)c3ccccc32)[nH]1 [Example 1, (3Z)-3-[(3,5-Dimethyl-1H-pyrrol-2-yl)-methylidene]-1-(1-pyrrolidinylmethyl)-1,3-dihydro-2H-indol-2-one]
half-life for conversion of the prodrug to drug [1]: 7.3 min
prodrug converted into drug (from area under the curve of drug concentration vs. time) [1]: 80%
aqueous solubility compared with the parent compound [2]: increased aqueous solubility
